Data from PMC2670776 (Hepatology (Baltimore, Md.), 2009).
Where a SMILES comes first, the peptide text is derived from it. The star is where a group is joined. Cbz = O=C(OCc1ccccc1)*

Assays:
proteasome [1] = experiment: Proteasome chymotrypsin-like; assay type: cell-based, mouse; details: HepB5 cells, 48 hr
proteasome [2] = experiment: Hydrolysis of […]-TE by cytosolic fractions of HepB5 cells; assay type: biochemical, mouse
SIINFEKL-H2Kb complex [3] = experiment: Presentation of […]-H2Kb complex on HepB5 cells; assay type: cell-based, mouse; details: for SIINFEKL-H2Kb presentation compared with controls: IFNγ-pretreated HepB5 cells, 1 hr
proteasome [4] = experiment: Proteasome activity in primary hepatocytes
SIINFEKL-H2Kb complex [5] = experiment: Presentation of SIINFEKL-H2Kb complex on primary hepatocytes
HepB5 cells = experiment: Acetaldehyde level in medium by head space gas chromatography; assay type: cell-based, mouse; details: HepB5 cells incubated with ethanol and DAS, 20 μM; culture medium
ADH = ADH (Mus musculus, UniProt P00329); details: HepB5 cells exposed to ethanol for 48 hr; total cell lysates
ADH, sequence (P00329 whole entry): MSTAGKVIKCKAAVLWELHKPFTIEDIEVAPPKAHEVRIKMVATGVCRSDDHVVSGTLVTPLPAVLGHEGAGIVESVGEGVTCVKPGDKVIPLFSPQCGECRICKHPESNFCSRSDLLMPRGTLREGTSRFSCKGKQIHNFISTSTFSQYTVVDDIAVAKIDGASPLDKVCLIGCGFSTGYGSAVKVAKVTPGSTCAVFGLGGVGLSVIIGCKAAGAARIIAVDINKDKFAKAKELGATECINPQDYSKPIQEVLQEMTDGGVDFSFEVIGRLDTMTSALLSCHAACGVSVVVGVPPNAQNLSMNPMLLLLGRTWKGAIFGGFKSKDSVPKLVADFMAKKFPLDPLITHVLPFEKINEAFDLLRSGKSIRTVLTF

STAT1 [6] = details: HepB5 cells, ethanol treatment then IFNγ; data not shown
STAT1 [7] = details: HepB5 cells, ethanol 48 hr then IFNγ 1 hr; nuclear extracts; 3 experiments
LMP2 = details: HepB5 cells, IFNγ 10 ng/ml and ethanol 50 mM, 48 hr; normalized to β-actin
PA28 = details: HepB5 cells, IFNγ 10 ng/ml and ethanol 50 mM, 48 hr; normalized to β-actin
H2Kb = H2Kb expression on HepB5 cells; assay type: cell-based, mouse; details: HepB5 cells after 24-hr IFNγ exposure; flow cytometric analysis
[8] = 50 mM ethanol 18 hr, without IFNγ

For `Cc1cn[nH]c1` [4MP, 4-methylpyrazole, reference compound], the “Cht-L proteasome activity, cells incubated with ethanol and 4MP” value (proteasome [1]; 50 mM ethanol + 4MP 2 mM) was “unaffected”, the “Inhibitory effect of ethanol on peptide cleavage after ethanol and 4MP” value (proteasome [2]; cytosols of HepB5 cells incubated with 50 mM ethanol and 4MP 2 mM) was “partially reversed” and the “Suppressive effects of ethanol on SIINFEKL-H2Kb presentation” value (SIINFEKL-H2Kb complex [3]; IFNγ-treated HepB5 cells, 50 mM ethanol with 4 MP in culture medium) was “blocked”. For the same molecule, the “Ethanol-elicited reduction in proteasome activity” value (proteasome [4]; 50 mM ethanol + 4MP 2 mM) was “partially prevented” and the “Ethanol-elicited reduction in SIINFEKL-H2Kb presentation” value (SIINFEKL-H2Kb complex [5]; 50 mM ethanol + 4MP 2 mM) was “partially prevented”.
With `C=CCSCC=C` [DAS, diallyl sulfide] the “Ach (acetaldehyde) levels” value (HepB5 cells) was “suppressed”.
`CC(C)C[C@@H](C=O)NC(=O)[C@H](CC(C)C)NC(=O)[C@H](CC(C)C)NC(=O)OCc1ccccc1` [MG132] (Cbz-Leu-Leu-Leu-aldehyde) was tested, and the SIINFEKL-TE hydrolysis (proteasome [2]; cytosols of HepB5 cells with MG132) was “completely blocked” and the “SIINFEKL-H2Kb presentation compared with controls” value (SIINFEKL-H2Kb complex [3]; MG132 20 μM) was “suppressed”.
For `C[C@H]1CCC/C=C/[C@@H]2C[C@H](O)C[C@H]2[C@H](O)/C=C/C(=O)O1` [brefeldin A], the “SIINFEKL-H2Kb presentation compared with controls” value (SIINFEKL-H2Kb complex [3]; brefeldin A 5 μg/ml) was “suppressed”.
In the case of `CCO` [ethanol], the “Effect on IFNγ induction of proteasome activity” value (proteasome [1]; 50 mM ethanol + IFNγ 10 ng/ml) was “blocked this induction”, the “Cht-L proteasome activity reduced by” value (proteasome [1]; ethanol 50 mM, 3 experiments) was 40% and the “Peptide hydrolysis in IFNγ-treated cells” value (proteasome [2]; cytosols of IFNγ-treated HepB5 cells exposed to 50 mM ethanol) was “suppressed”. For the same molecule, the ADH activity (ADH) was “unchanged”, the STAT1 phosphorylation (STAT1 [6]) was “no changes” and the “STAT1 attachment to DNA” value (STAT1 [7]) was “suppressed”. The “Induction of immunoproteasome subunit LMP2 by IFNγ” value (LMP2) was “prevented the induction”, the “Induction of 20S proteasome activator PA28 expression by IFNγ” value (PA28) was “prevented the induction” and the Proteasome activity (proteasome [4]; [8]) was “decreased”. For the same molecule, the “Proteasome function in IFNγ-pretreated hepatocytes” value (proteasome [4]; IFNγ 10 ng/ml, 50 mM ethanol) was “down-regulated”, the “Presentation of SIINFEKL-H2Kb complexes” value (SIINFEKL-H2Kb complex [5]; [8]) was “decreased” and the “Antigen presentation in IFNγ-pretreated hepatocytes” value (SIINFEKL-H2Kb complex [5]; IFNγ 10 ng/ml, 50 mM ethanol) was “down-regulated”.
`COC1=C2C[C@@H](C)C[C@H](OC)[C@H](O)[C@@H](C)/C=C(\C)[C@H](OC(N)=O)[C@@H](OC)/C=C\C=C(/C)C(=O)NC(=CC1=O)C2=O` [geldanamycin] was tested, and the “SIINFEKL-H2Kb presentation compared with controls” value (SIINFEKL-H2Kb complex [3]; geldanamycin 5 μM) was “suppressed”.
With “IFNγ: recombinant interferon gamma, used at 10 ng/ml” the “Effect on proteasome activity” value (proteasome [1]; IFNγ 10 ng/ml) was “induced proteasome activity” and the H2Kb positive cells (H2Kb) was “about 90%”.
For catalase, the SIINFEKL-H2Kb presentation restored (SIINFEKL-H2Kb complex [3]; IFNγ-treated HepB5 cells, co-treatment with ethanol and catalase) was “up to 80%”.
